The record followed here is paper PMC7403315, “Cyclic peptide FXII inhibitor provides safe anticoagulation in a thrombosis model and in artificial lungs” (Nature Communications, 2020).

Molecules are shown by their SMILES. Starred links: 1 amine or outer side, 2 acyl side, 3 side chain; linkers in the order of their positions; H or OH if unused. Positions of bridges follow the written chain, without caps; N, C: chain ends. Non-standard residues stand in square brackets, D forms with d. Residues, ends and D or L forms follow the SMILES beside them. TATA = O=C(CC[*:1])N1CN(C(=O)CC[*:2])CN(C(=O)CC[*:3])C1; Phe(4-F) = N[C@@H](Cc1ccc(F)cc1)C(=O)O; β3hR = N=C(N)NCCC[C@H](N)CC(=O)O

The target in this experiment is T1, Recombinant mouse FXII (Mus musculus, UniProt Q80YC5).
T1 sequence (Q80YC5 355-597 limits assumed): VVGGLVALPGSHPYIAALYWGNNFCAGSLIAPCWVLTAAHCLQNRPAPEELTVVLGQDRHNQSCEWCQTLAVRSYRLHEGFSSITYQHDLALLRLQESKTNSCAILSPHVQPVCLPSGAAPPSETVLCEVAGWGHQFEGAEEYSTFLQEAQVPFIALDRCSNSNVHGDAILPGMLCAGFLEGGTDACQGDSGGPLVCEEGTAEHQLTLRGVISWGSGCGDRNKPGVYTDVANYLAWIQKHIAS
T1 sequence (Q80YC5 20-354 limits assumed): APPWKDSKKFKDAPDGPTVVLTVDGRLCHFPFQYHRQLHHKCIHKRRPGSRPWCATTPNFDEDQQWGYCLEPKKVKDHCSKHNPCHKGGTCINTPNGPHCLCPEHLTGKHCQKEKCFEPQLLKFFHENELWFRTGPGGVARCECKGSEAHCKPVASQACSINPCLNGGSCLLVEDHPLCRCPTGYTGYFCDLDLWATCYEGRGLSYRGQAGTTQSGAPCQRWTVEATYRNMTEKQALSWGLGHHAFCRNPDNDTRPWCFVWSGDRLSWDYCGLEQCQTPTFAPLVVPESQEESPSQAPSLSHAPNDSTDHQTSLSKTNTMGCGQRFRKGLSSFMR
Briefly: Inhibition of recombinant FXIIa (rFXIIa). It is filed as biochemical. The following applies: individual plates.

`CC(C)C[C@@H]1NC(=O)[C@H](CCC(N)=O)NC(=O)[C@H](CCCNC(=N)N)NC(=O)[C@@H]2CSCCC(=O)N3CN(CN(C3)C(=O)CCSC[C@H](NC(=O)[C@@H](N)CCCNC(=N)N)C(=O)N[C@@H](Cc3ccccc3)C(=O)N[C@@H](CCCNC(=N)N)C(=O)N[C@@H](CC(C)C)C(=O)N3CCC[C@H]3C(=O)N2)C(=O)CCSC[C@@H](C(=O)N[C@@H](CCCNC(=N)N)C(N)=O)NC(=O)[C@H](CCCNC(=N)N)NC1=O` [FXII618]: for the setting “Recombinant mouse FXII, peptide 0.390625 nM, read-out: Residual activity (%)”, the remaining activity at 0.000390625 µM came out at 97.5%. For the same compound, where the note is “Recombinant mouse FXII, peptide 0.78125 nM, read-out: Residual activity (%)”, the remaining activity at 0.00078125 µM was 99%. The remaining activity at 0.0015625 µM (Recombinant mouse FXII, peptide 1.5625 nM, read-out: Residual activity (%)) amounted to 99.1%. The remaining activity at 0.003125 µM (Recombinant mouse FXII, peptide 3.125 nM, read-out: Residual activity (%)) came out at 96.3%. Also, the remaining activity at 0.00625 µM (Recombinant mouse FXII, peptide 6.25 nM, read-out: Residual activity (%)) was found to be 94%. Further, the remaining activity at 0.0125 µM (Recombinant mouse FXII, peptide 12.5 nM, read-out: Residual activity (%)) was 90.3%. Further, the remaining activity at […] (Recombinant mouse FXII, peptide 25 nM, read-out: Residual activity (%)) was 81.9%. Also, the remaining activity at 0.05 µM (Recombinant mouse FXII, peptide 50 nM, read-out: Residual activity (%)) worked out at 69.1%. Further, the remaining activity at 0.1 µM (Recombinant mouse FXII, peptide 100 nM, read-out: Residual activity (%)) is 53%. The remaining activity at 0.2 µM (Recombinant mouse FXII, peptide 200 nM, read-out: Residual activity (%)) worked out at 35.9%. For the same compound, for the setting “Recombinant mouse FXII, peptide 400 nM, read-out: Residual activity (%)”, the remaining activity at 0.4 µM came out at 22.6%.
Consider `CC(C)C[C@@H]1NC(=O)[C@H](CCC(N)=O)NC(=O)[C@H](Cc2c[nH]cn2)NC(=O)[C@@H]2CSCCC(=O)N3CN(CN(C3)C(=O)CCSC[C@H](NC(=O)[C@@H](CO)NC(=O)[C@H](N)CCCNC(=N)N)C(=O)N[C@@H](Cc3ccc(F)cc3)C(=O)N[C@@H](CCCNC(=N)N)C(=O)N[C@@H](CC(C)C)C(=O)N3CCC[C@H]3C(=O)N2)C(=O)CCSC[C@@H](C(N)=O)NC(=O)C[C@H](CCCNC(=N)N)NC1=O` [FXII900] (H-[dR][dS]C[Phe(4-F)]RLPCHQL[β3hR]C-NH2; linker 3-8-13 via TATA), for which the remaining activity at 30.52 pM (read-out: Residual activity (%), Recombinant mouse FXII, peptide 0.030518 nM) was 94.5%. Besides, the remaining activity at 61.04 pM (read-out: Residual activity (%), Recombinant mouse FXII, peptide 0.061035 nM) is 95%. Besides, for the setting “read-out: Residual activity (%), Recombinant mouse FXII, peptide 0.12207 nM”, the remaining activity at 0.00012207 µM was found to be 85.5%. In addition, the remaining activity at 0.000244141 µM (read-out: Residual activity (%), Recombinant mouse FXII, peptide 0.244141 nM) is 77.6%. Besides, the remaining activity at 0.000488281 µM (read-out: Residual activity (%), Recombinant mouse FXII, peptide 0.488281 nM) was 61.6%. For the same compound, the remaining activity at 0.000976563 µM (read-out: Residual activity (%), Recombinant mouse FXII, peptide 0.976563 nM) was 37.8%. Moreover, the remaining activity at 0.00195312 µM (read-out: Residual activity (%), Recombinant mouse FXII, peptide 1.95312 nM) stood at 15.3%. Further, the remaining activity at 0.0078125 µM (read-out: Residual activity (%), Recombinant mouse FXII, peptide 7.8125 nM) amounted to 0.768%. Also, for the setting “read-out: Residual activity (%), Recombinant mouse FXII, peptide 15.625 nM”, the remaining activity at 0.015625 µM amounted to 0%. The remaining activity at 0.03125 µM (read-out: Residual activity (%), Recombinant mouse FXII, peptide 31.25 nM) was 0%.
